The target in one data set is T1, purified human αvβ3 (Homo sapiens, UniProt P05106+P06756).
T1 construct: purchased Chemicon International, Temecula, Calif., USA
Kind of data set: ELISA: competitive inhibition of biotinylated vitronectin binding to immobilized purified integrin αvβ3. To be noted: for in vitro measured IC50 increase from IA-monomer: compared to IA-monomer. The method, then:
In vitro Binding Assay. […] Purified integrin αvβ3 protein (Chemicon International, Temecula, Calif., USA) was applied to 96-well polystyrene microtiter plates at 0.1 μg/well. After overnight incubation at 4° C., the plates were washed, and then blocked with milk solution (KPL, Inc. Gaithersburg, Md., USA) at room temperature for 2 hr. The blocking buffer was removed, and the plates were inoculated in quadruplicate with bivalent IAs with a typical starting concentration of 125 nM. Serial dilutions were prepared in the 96-well plates using multichannel pipettes. Biotinylated vitronectin solution (0.1 μg/well) was added to each well as a standard competitor. The plates were incubated at room temperature for 3 h, washed, and the bound vitronectin was detected using NeutrAvidin-HRP conjugate at 0.01 μg/well (Pierce, Rockford, Ill., USA) and LumiGlo® chemiluminescent substrate system (KPL, Inc.). The luminescence was read using a FLUOstar™ OPTIMA Microplate Reader (Durham, N.C., USA). […] (Peptides International, Inc., Louisville, Ky., USA) was also tested using the same method as described above.
Briefly, purified integrin αvβ3 protein (Chemicon International, Temecula, Calif., USA) was applied to 96-well polystyrene microtiter plates for overnight incubation at 4° C. The plates were washed and then blocked with milk solution (KPL, Inc., Gaithersburg, Md., USA) and the plates were inoculated in quadruplicate with multivalent IAs at different concentrations. Biotinylated vitronectin solution was added to each well as a standard competitor. The plates were incubated at room temperature, washed, and the bound vitronectin detected using NeutrAvidin-HRP® conjugate (Pierce, Rockford, Ill., USA) and LumiGlo® chemiluminescent substrate system (KPL, Inc., Gaithersburg, Md., USA). The luminescence was read using a FLUOstar® OPTIMA Microplate Reader (Durham, N.C., USA).
In vitro Binding Affinity Assay. Purified integrin αvβ3 protein (Chemicon International, Temecula, Calif., USA) was applied to 96-well polystyrene microtiter plates at 1 μg/well. After overnight incubation at 4° C., the plates were washed and then blocked with milk solution (KPL, Inc., Gaithersburg, Md., USA) at room temperature for 2 hr. The blocking buffer was removed, and the plates were inoculated in quadruplicate with bivalent IAs with a typical starting concentration of 125 nM. Serial dilutions were prepared in the 96-well plates using multichannel pipettes. Biotinylated vitronectin solution (0.1 μg/well) was added to each well as a standard competitor.
The plates were incubated at room temperature for 3 hr, washed, and the bound vitronectin was detected using NeutrAvidin-HRP conjugate at 0.01 μg/well (Pierce, Rockford, Ill., USA) and LumiGlo® chemiluminescent substrate system (KPL, Inc.). The luminescence was read using a FLUOstar OPTIMA Microplate Reader (Durham, N.C., USA). […] It measured competitive binding of the integrin antagonist and biotinylated human vitronectin for the immobilized receptor αvβ3.
(In general: ELISA stands for enzyme-linked immunosorbent assay.)

The subject of a further data set is B16F10 melanoma tumor. Kind of data set: In vivo antitumor efficacy in B16F10 melanoma tumor-bearing mice. To be noted: for average tumor volume / tumor volume against control group (PBS = 100%): 14 days; for tumor volume against control group (PBS = 100%): 30 mg/kg i.p. every 12 hours; for reduction in tumor mass compared to control: 30 mg/kg, endpoint. The method, then:
All animal procedures were approved by appropriate Animal Care and Use Committee. The therapeutic test for antitumor efficacy of IA multivalent compounds was evaluated using tumor-bearing mice, which were prepared by bilateral subcutaneous injection in the thighs of nu/nu female mice (6 weeks old; 20-25 g). The mouse melanoma cancer cell line B16F10 was obtained from Caliper and tested negative for rodent pathogens. The cells were maintained in vitro as described above. The mice were inoculated with suspensions of 1×10^6 B16F10 cells in 100 μL complete medium (10% FBS added). Three days after subcutaneous inoculation (the tumor diameter was approximately 3-5 mm, the tumor volume was approximately 50 to 100 mm^3), tumor-bearing mice (n=7 per group) were injected intraperitoneally (i.p.) with each IA compound (monomer, dimer, or trimer) in PBS or PBS alone for control group. All compounds were serially diluted with PBS, and were given 2 times per day (every 12 hr) at a dose of 100 μL of 7.5, 15, 30 mg/kg per injection for 14 days. […] This study design was deliberately chosen to highlight the effect of multivalency. The tumor size was calculated as a×b^2/2, where ‘a’ is the largest and ‘b’ the smallest diameter. In addition, the weight of the mice and the tumors were recorded after harvesting.
A tumor growth model was used to isolate and interpret the effects of pharmacological dose (pharmacophore) and multivalency. This was done using the R software package ‘geepack’ (Højsgaard et al., 2006; Team et al., 2012). The tumor burden (sum of the volumes of left and right tumors) for each animal was first normalized by dividing by the starting volume on the first day of treatment, then taking the logarithm to linearize the data. The pharmacological dose was decoupled from the molecular valency, N, for this model by defining the pharmacophore or pharmacological dose (PD) as PD=N×MD, where MD is the molar dose. The pharmacological excess (compared to monomer) dose (ED) due to multivalency is then: ED=PD-MD=MD×(N−1). The data was fit to a linear model:
All animal procedures were approved by the appropriate regulatory agencies. The therapeutic test for antitumor efficacy of IA multivalent compounds was evaluated using tumor-bearing mice that were prepared by the subcutaneous injection in the dorsa of nu/nu female mice (6 weeks old; 20-25 g). The mouse melanoma cancer cell line B16F10 was obtained from Caliper, and tested negative for rodent pathogens. The cells were maintained in vitro as described above. Mice were inoculated with a suspension of 1×10^6 B16F10 cells in 100 μL complete medium (10% FBS added). Four days after subcutaneous inoculation (the tumor diameter was approximately […], the tumor volume was approximately 50 to 100 mm^3), tumor-bearing mice (n=7 per group) were inoculated intraperitoneally (i.p.) with each IA compound (Monomer, Dimer, Trimer) in PBS or PBS alone for control group. All compounds were serially diluted with PBS and were given 2 times per day (every 12 hr) so that compounds doses would be 100 μL of 7.5, 15, 30 mg/kg (maximum tolerated dose) for 14 days. The tumor size was calculated as: a×b2/2, where a is the largest and b the smallest diameter.

The mark [1] stands for this setting: monomer/dimer/trimer study, FIG. 28, Table 5, read-out: IC50 (nM) ELISA.
Setting [2] is: Example 1 bivalent IA study, FIG. 4, read-out: IC50 of vitronectin binding to αvβ3 (ELISA).

Structures are written as SMILES. Values joined by “and” are separate entries in the source; they are usually repeats but may differ in a detail not shown here. Equal entries are not always repeated. “Also recorded” adds a separate entry of the source. Where two headings read alike, the source gives them in different places.

As usually defined, the IC50 is the midpoint of a concentration-inhibition curve.

As to `O=C(NCCS(=O)(=O)N[C@@H](CNC(=O)c1ccc(OCCNC2=NCCCN2)cc1)C(=O)O)OCCN(CCOC(=O)NCCS(=O)(=O)N[C@@H](CNC(=O)c1ccc(OCCNC2=NCCCN2)cc1)C(=O)O)CCOC(=O)NCCS(=O)(=O)N[C@@H](CNC(=O)c1ccc(OCCNC2=NCCCN2)cc1)C(=O)O` [IA trimer], at purified human αvβ3 (compared to IA dimer), the “increase in IC50 from the dimer to trimer” value is on record as 2 fold. On purified human αvβ3, the “in vitro measured IC50 increase from IA-monomer” value worked out at 56 fold. The IC50 at purified human αvβ3 (setting [1]) came to 0.22 nM. Also, the average tumor volume is 2000 mm^3 with B16F10 melanoma tumor (15 mg/kg i.p. twice per day); 1800 (s.d. 800) mm^3 and 1800 mm^3 in the data set on B16F10 melanoma tumor (30 mg/kg i.p. twice per day); 2000 mm^3 in the data set on B16F10 melanoma tumor (Example 3, dose not stated). Moreover, the “average tumor volume as fraction of PBS-treated control mice” value in the data set with B16F10 melanoma tumor (15 mg/kg, 14 days after start of treatment) is reported as “less than ⅓; also recorded: less than one-third”. Besides, in the data set on B16F10 melanoma tumor, the “tumor volume against control group (PBS = 100%)” value (shortened to “tumor volume … (PBS = 100%)”) is reported as 32.05%. Further, the “reduction in tumor mass compared to control” value (“reduction in tumor mass” for short) in the data set with B16F10 melanoma tumor was 71±7%. Also, in the data set with B16F10 melanoma tumor (7.5, 15, 30 mg/kg twice per day), the survival result is given as “all of animals survived for at least 2 weeks”. Further, in the data set on B16F10 melanoma tumor (compared to IA-dimer group), the “average tumor size smaller than in the IA-dimer group” value is recorded as 1.7 fold. Also, in the data set with B16F10 melanoma tumor (compared to IA-monomer group), the “average tumor size smaller than in the IA-monomer group” value is 2.3 fold.
Turning to `NCCS(=O)(=O)N[C@@H](CNC(=O)c1ccc(OCCNC2=NCCCN2)cc1)C(=O)O` [IA, 4-[2-(3,4,5,6-tetrahydropyrimidine-2-ylamino)ethyloxy]benzoyl-2-(S)-aminoethylsulfonyl-amino-β-alanine], the IC50 at purified human αvβ3 (setting [2]) is 22.3 ± 4.51 nM; on purified human αvβ3 (Example 2, PEG-linked ligands, averages of at least three determinations, read-out: In vitro EL1SA IC50), 22.3 nM; on purified human αvβ3 (setting [1]), 11 nM. The “tumor volume … (PBS = 100%)” value in the data set with B16F10 melanoma tumor is 59.29%. Further, the average tumor volume is 3300 (s.d. 1200) mm^3 with B16F10 melanoma tumor (30 mg/kg i.p. twice per day) and 5000 mm^3 in the data set with B16F10 melanoma tumor (Example 3, dose not stated). Moreover, the “reduction in tumor mass” value in the data set on B16F10 melanoma tumor is 36±9%.
With `NC(CCCCCC(=O)NCCS(=O)(=O)N[C@@H](CNC(=O)c1ccc(OCCNC2=NCCCN2)cc1)C(=O)O)C(=O)NCCS(=O)(=O)N[C@@H](CNC(=O)c1ccc(OCCNC2=NCCCN2)cc1)C(=O)O` (stereo partly shown) [bivalent IA], the “integrin αvβ3 binding affinity compared to monomer” value at purified human αvβ3 was “significantly higher integrin avb3-binding affinity and specificity than IA monomer”. Further, the half-inhibitory concentration (IC50) at purified human αvβ3 (setting [2]) is 0.4 ± 0.11 nM; at purified human αvβ3 (setting [1]), 0.44 nM. Also, the “in vitro measured IC50 increase from IA-monomer” value at purified human αvβ3 was determined as 28 fold. The “improvement in receptor affinity (IC50) over c-[RGDfV]” value at purified human αvβ3 (compared to c-[RGDfV]) is 10 fold. The “tumor volume … (PBS = 100%)” value with B16F10 melanoma tumor was 45.33%. The average tumor volume in the data set with B16F10 melanoma tumor (30 mg/kg i.p. twice per day) is 2500 (s.d. 1000) mm^3; with B16F10 melanoma tumor (Example 3, dose not stated), 3000 mm^3. The “reduction in tumor mass” value with B16F10 melanoma tumor (listed as dimer) came out at 49±8%.

Values taken from patent US9833520B2, “Labeled, non-peptidic, multivalent integrin antagonist compounds; methods for synthesis and uses thereof” (The Methodist Hospital Research Institute, priority 2011, dated 2017).
